PubChem BioAssay AID270 (DTP/NCI, 2004)
Several values for one entry are separate records, joined by “and”; a condition that tells them apart may be missing. Equal entries are not always repeated. Inconclusive results are not listed.

Test system: BDF1 mice, s.c. Lewis lung carcinoma, T/C %
Test: NCI In Vivo Anticancer Drug Screen. Data for tumor model Lewis Lung Carcinoma (subcutaneous) in B6D2F1 (BDF1) mice
Method: The antitumor activity of compounds was measured in mice bearing transplantable tumors. Survival or tumor size were measured and the results are expressed as the measurement made in the treated group (T) divided by the measurement made in the vehicle treated control group (C). The tumor model used in this assay is Lewis Lung Carcinoma (subcutaneous) in B6D2F1 (BDF1) mice

[1] = endpoint: median survival time, dose: 5.0 mg/kg/injection, schedule: Q01DX009 (ip), vehicle: saline, higher = longer survival
[2] = endpoint: median survival time, dose: 10.0 mg/kg/injection, schedule: Q01DX009 (ip), vehicle: saline, higher = longer survival

O=C(O)Cc1ccc(C2CCCCC2)cc1
T/C (endpoint: mean tumor weight, dose: 150.0 mg/kg/injection, schedule: Q01DX011 (ip), vehicle: carboxymethylcellulose (CMC), higher = larger tumour): 67 % of control | T/C (endpoint: mean tumor weight, dose: 225.0 mg/kg/injection, schedule: Q01DX011 (ip), vehicle: carboxymethylcellulose (CMC), higher = larger tumour): 88 % of control | T/C (endpoint: mean tumor weight, dose: 335.0 mg/kg/injection, schedule: Q01DX011 (ip), vehicle: carboxymethylcellulose (CMC), higher = larger tumour): 100 % of control

Nc1ncc(CNc2ccc(C(=O)NC(CCC(=O)O)C(=O)O)cc2)c(N)n1 (centres undefined)
T/C (endpoint: median survival time, dose: 50.0 mg/kg/injection, schedule: Q01DX009 (ip), vehicle: Klucel (hydroxypropylcellulose) (HPC), higher = longer survival): 94 % of control | T/C (endpoint: median survival time, dose: 100.0 mg/kg/injection, schedule: Q01DX009 (ip), vehicle: Klucel (hydroxypropylcellulose) (HPC), higher = longer survival): 100 % of control | T/C (endpoint: median survival time, dose: 400.0 mg/kg/injection, schedule: Q01DX009 (ip), vehicle: Klucel (hydroxypropylcellulose) (HPC), higher = longer survival): 117 % of control

CC[C@H](c1ccc(O)cc1)[C@@H](CC)c1ccc(O)cc1
T/C (endpoint: mean tumor weight, dose: 12.5 mg/kg/injection, schedule: Q01DX011 (ip), vehicle: saline, higher = larger tumour): 92 % of control | T/C (endpoint: mean tumor weight, dose: 25.0 mg/kg/injection, schedule: Q01DX011 (ip), vehicle: saline, higher = larger tumour): 82 % of control | T/C (endpoint: mean tumor weight, dose: 50.0 mg/kg/injection, schedule: Q01DX011 (ip), vehicle: saline, higher = larger tumour): 47 % of control | T/C (endpoint: mean tumor weight, dose: 100.0 mg/kg/injection, schedule: Q01DX011 (ip), vehicle: saline, higher = larger tumour): 16 % of control

CN1CC(=O)NC1=O
T/C (endpoint: mean tumor weight, dose: 2000.0 mg/kg/injection, schedule: Q01DX011 (ip), vehicle: saline, higher = larger tumour): 99 % of control and 124 % of control

O=c1[nH]cc(F)c(=O)[nH]1
T/C (endpoint: mean tumor weight, dose: 5.0 mg/kg/injection, schedule: Q01DX011 (ip), vehicle: saline, higher = larger tumour): 54 % of control | T/C (endpoint: mean tumor weight, dose: 10.0 mg/kg/injection, schedule: Q01DX011 (ip), vehicle: saline, higher = larger tumour): 68 % of control | T/C (endpoint: mean tumor weight, dose: 13.5 mg/kg/injection, schedule: Q01DX011 (ip), vehicle: water, higher = larger tumour): 51 % of control | T/C (endpoint: mean tumor weight, dose: 20.0 mg/kg/injection, schedule: Q01DX011 (ip), vehicle: saline, higher = larger tumour): 35 % of control | T/C (endpoint: mean tumor weight, dose: 27.0 mg/kg/injection, schedule: Q01DX011 (ip), vehicle: water, higher = larger tumour): 6 % of control | T/C (endpoint: median survival time, dose: 5.0 mg/kg/injection, schedule: Q01DX009 (ip), vehicle: Klucel (hydroxypropylcellulose) (HPC), higher = longer survival): 86 % of control | T/C (endpoint: median survival time, dose: 5.0 mg/kg/injection, schedule: Q01DX009 (ip), vehicle: saline with Tween-80, higher = longer survival): 97 % of control | T/C [1]: 108 % of control | T/C (endpoint: median survival time, dose: 10.0 mg/kg/injection, schedule: Q01DX009 (ip), vehicle: Klucel (hydroxypropylcellulose) (HPC), higher = longer survival): 97 % of control and 98 % of control | T/C (endpoint: median survival time, dose: 10.0 mg/kg/injection, schedule: Q01DX009 (ip), vehicle: saline with Tween-80, higher = longer survival): 86 % of control | T/C [2]: 118 % of control | T/C (endpoint: median survival time, dose: 16.2 mg/kg/injection, schedule: Q04DX002 (ip), vehicle: saline, higher = longer survival): 97 % of control and 102 % of control | T/C (endpoint: median survival time, dose: 20.0 mg/kg/injection, schedule: Q01DX009 (ip), vehicle: Klucel (hydroxypropylcellulose) (HPC), higher = longer survival): 111 % of control | T/C (endpoint: median survival time, dose: 20.0 mg/kg/injection, schedule: Q01DX009 (ip), vehicle: saline with Tween-80, higher = longer survival): 97 % of control and 112 % of control | T/C (endpoint: median survival time, dose: 21.6 mg/kg/injection, schedule: Q04DX004 (ip), vehicle: saline, higher = longer survival): 124 % of control | T/C (endpoint: median survival time, dose: 23.3 mg/kg/injection, schedule: Q04DX003 (iv), vehicle: alkali diluted with saline, higher = longer survival): 157 % of control | T/C (endpoint: median survival time, dose: 27.0 mg/kg/injection, schedule: Q04DX002 (ip), vehicle: saline, higher = longer survival): 100 % of control and 102 % of control | T/C (endpoint: median survival time, dose: 36.0 mg/kg/injection, schedule: Q04DX004 (ip), vehicle: saline, higher = longer survival): 115 % of control | T/C (endpoint: median survival time, dose: 40.0 mg/kg/injection, schedule: Q01DX009 (ip), vehicle: Klucel (hydroxypropylcellulose) (HPC), higher = longer survival): 86 % of control | T/C (endpoint: median survival time, dose: 40.4 mg/kg/injection, schedule: Q04DX003 (iv), vehicle: alkali diluted with saline, higher = longer survival): 201 % of control | T/C (endpoint: median survival time, dose: 45.0 mg/kg/injection, schedule: Q04DX002 (ip), vehicle: saline, higher = longer survival): 96 % of control and 97 % of control | T/C (endpoint: median survival time, dose: 70.0 mg/kg/injection, schedule: Q04DX003 (iv), vehicle: alkali diluted with saline, higher = longer survival): 98 % of control | T/C (endpoint: median survival time, dose: 75.0 mg/kg/injection, schedule: Q04DX002 (ip), vehicle: saline, higher = longer survival): 105 % of control | T/C (endpoint: median survival time, dose: 100.0 mg/kg/injection, schedule: Q04DX004 (ip), vehicle: saline, higher = longer survival): 64 % of control | T/C (endpoint: median survival time, dose: 121.0 mg/kg/injection, schedule: Q04DX003 (iv), vehicle: alkali diluted with saline, higher = longer survival): 95 % of control | T/C (endpoint: median survival time, dose: 125.0 mg/kg/injection, schedule: Q04DX002 (ip), vehicle: saline, higher = longer survival): 109 % of control | T/C (endpoint: median tumor weight (est.), dose: 5.0 mg/kg/injection, schedule: Q01DX009 (ip), vehicle: Klucel (hydroxypropylcellulose) (HPC), higher = larger tumour): 102 % of control | T/C (endpoint: median tumor weight (est.), dose: 5.0 mg/kg/injection, schedule: Q01DX009 (ip), vehicle: saline with Tween-80, higher = larger tumour): 97 % of control | T/C (endpoint: median tumor weight (est.), dose: 10.0 mg/kg/injection, schedule: Q01DX009 (ip), vehicle: Klucel (hydroxypropylcellulose) (HPC), higher = larger tumour): 91 % of control | T/C (endpoint: median tumor weight (est.), dose: 10.0 mg/kg/injection, schedule: Q01DX009 (ip), vehicle: saline with Tween-80, higher = larger tumour): 93 % of control | T/C (endpoint: median tumor weight (est.), dose: 20.0 mg/kg/injection, schedule: Q01DX009 (ip), vehicle: Klucel (hydroxypropylcellulose) (HPC), higher = larger tumour): 73 % of control | T/C (endpoint: median tumor weight (est.), dose: 20.0 mg/kg/injection, schedule: Q01DX009 (ip), vehicle: saline with Tween-80, higher = larger tumour): 53 % of control

O=[N+]([O-])c1ccc2c(N=Nc3ccc4ccccc4c3O)c(O)cc(S(=O)(=O)O)c2c1
T/C (endpoint: median survival time, dose: 37.5 mg/kg/injection, schedule: Q01DX009 (ip), vehicle: saline, higher = longer survival): 101 % of control | T/C (endpoint: median survival time, dose: 75.0 mg/kg/injection, schedule: Q01DX009 (ip), vehicle: saline, higher = longer survival): 109 % of control | T/C (endpoint: median survival time, dose: 150.0 mg/kg/injection, schedule: Q01DX009 (ip), vehicle: saline, higher = longer survival): 94 % of control

CC[n+]1ccc(Nc2ccc(/C=C/c3ccc4cc(Nc5cc[n+](CC)cc5)ccc4[n+]3CC)cc2)cc1
T/C (endpoint: median survival time, dose: 2.5 mg/kg/injection, schedule: Q01DX009 (ip), vehicle: saline, higher = longer survival): 95 % of control | T/C [1]: 100 % of control | T/C [2]: 91 % of control

C=C(C)C(=O)OCCN(C)C (tested in a mixture with another compound)
T/C (endpoint: median survival time, dose: 50.0 mg/kg/injection, schedule: Q01DX009 (ip), vehicle: other, higher = longer survival): 102 % of control | T/C (endpoint: median survival time, dose: 100.0 mg/kg/injection, schedule: Q01DX009 (ip), vehicle: other, higher = longer survival): 103 % of control | T/C (endpoint: median survival time, dose: 200.0 mg/kg/injection, schedule: Q01DX009 (ip), vehicle: other, higher = longer survival): 108 % of control | T/C (endpoint: median survival time, dose: 400.0 mg/kg/injection, schedule: Q01DX009 (ip), vehicle: other, higher = longer survival): 102 % of control

CCCCCCCCSC1=C(Cl)C(=O)C(OC)=C(OC)C1=O
T/C (endpoint: median survival time, dose: 12.5 mg/kg/injection, schedule: Q01DX009 (ip), vehicle: other, higher = longer survival): 92 % of control

Cc1ccc2nc(-c3ccc(N=Cc4ccccc4O)cc3)sc2c1
T/C (endpoint: median survival time, dose: 200.0 mg/kg/injection, schedule: Q01DX009 (ip), vehicle: olive oil, sesame oil, peanut oil, higher = longer survival): 87 % of control

CN(C)CC(C(=O)c1ccc(Br)cc1)C(Br)c1ccccc1 (centres undefined)
T/C [1]: 107 % of control | T/C [2]: 100 % of control | T/C (endpoint: median survival time, dose: 40.0 mg/kg/injection, schedule: Q01DX009 (ip), vehicle: saline, higher = longer survival): 119 % of control

COc1cc(NC(=O)CN(CCCl)CCCl)cc(OC)c1OC
T/C (endpoint: median survival time, dose: 50.0 mg/kg/injection, schedule: Q01DX009 (ip), vehicle: saline with Tween-80, higher = longer survival): 88 % of control | T/C (endpoint: median survival time, dose: 100.0 mg/kg/injection, schedule: Q01DX009 (ip), vehicle: saline with Tween-80, higher = longer survival): 98 % of control | T/C (endpoint: median survival time, dose: 200.0 mg/kg/injection, schedule: Q01DX009 (ip), vehicle: saline with Tween-80, higher = longer survival): 94 % of control

Cc1ccc(NC(=O)c2ccccc2)cc1[As]=[As]c1cc(NC(=O)c2ccccc2)ccc1C (centres undefined)
T/C (endpoint: median survival time, dose: 0.63 mg/kg/injection, schedule: Q01DX009 (ip), vehicle: Klucel (hydroxypropylcellulose) (HPC), higher = longer survival): 100 % of control | T/C (endpoint: median survival time, dose: 1.25 mg/kg/injection, schedule: Q01DX009 (ip), vehicle: Klucel (hydroxypropylcellulose) (HPC), higher = longer survival): 100 % of control

Cc1ccnc(NS(=O)(=O)c2ccc(N=Nc3nc4[nH]c(N)nc(=S)c4[nH]3)cc2)n1
T/C (endpoint: median survival time, dose: 0.19 mg/kg/injection, schedule: Q01DX009 (ip), vehicle: Klucel (hydroxypropylcellulose) (HPC), higher = longer survival): 106 % of control | T/C (endpoint: median survival time, dose: 0.39 mg/kg/injection, schedule: Q01DX009 (ip), vehicle: Klucel (hydroxypropylcellulose) (HPC), higher = longer survival): 94 % of control | T/C (endpoint: median survival time, dose: 0.78 mg/kg/injection, schedule: Q01DX009 (ip), vehicle: Klucel (hydroxypropylcellulose) (HPC), higher = longer survival): 97 % of control | T/C (endpoint: median survival time, dose: 1.56 mg/kg/injection, schedule: Q01DX009 (ip), vehicle: Klucel (hydroxypropylcellulose) (HPC), higher = longer survival): 87 % of control and 103 % of control

O=NN(CCF)C(=O)NC1CCCCC1
T/C (endpoint: median survival time, dose: 5.0 mg/kg/injection, schedule: Q01DX001 (ip), vehicle: Klucel (hydroxypropylcellulose) (HPC), higher = longer survival): 101 % of control (2×) and 119 % of control | T/C (endpoint: median survival time, dose: 5.1 mg/kg/injection, schedule: Q01DX001 (ip), vehicle: other, higher = longer survival): 96 % of control | T/C (endpoint: median survival time, dose: 10.0 mg/kg/injection, schedule: Q01DX001 (ip), vehicle: Klucel (hydroxypropylcellulose) (HPC), higher = longer survival): 90 % of control and 116 % of control and 119 % of control | T/C (endpoint: median survival time, dose: 10.2 mg/kg/injection, schedule: Q01DX001 (ip), vehicle: other, higher = longer survival): 105 % of control | T/C (endpoint: median survival time, dose: 20.0 mg/kg/injection, schedule: Q01DX001 (ip), vehicle: Klucel (hydroxypropylcellulose) (HPC), higher = longer survival): 101 % of control and 109 % of control and 119 % of control | T/C (endpoint: median survival time, dose: 20.4 mg/kg/injection, schedule: Q01DX001 (ip), vehicle: other, higher = longer survival): 121 % of control | T/C (endpoint: median survival time, dose: 40.0 mg/kg/injection, schedule: Q01DX001 (ip), vehicle: Klucel (hydroxypropylcellulose) (HPC), higher = longer survival): 182 % of control
